This is an account of results in PMC8213057, “Targeting ALK2: An Open Science Approach to Developing Therapeutics for the Treatment of Diffuse Intrinsic Pontine Glioma” (Journal of Medicinal Chemistry, 2020).

Assay [1] deals with T1, HIPK4 (Homo sapiens, UniProt Q8NE63).
T1 sequence (Q8NE63 1-616): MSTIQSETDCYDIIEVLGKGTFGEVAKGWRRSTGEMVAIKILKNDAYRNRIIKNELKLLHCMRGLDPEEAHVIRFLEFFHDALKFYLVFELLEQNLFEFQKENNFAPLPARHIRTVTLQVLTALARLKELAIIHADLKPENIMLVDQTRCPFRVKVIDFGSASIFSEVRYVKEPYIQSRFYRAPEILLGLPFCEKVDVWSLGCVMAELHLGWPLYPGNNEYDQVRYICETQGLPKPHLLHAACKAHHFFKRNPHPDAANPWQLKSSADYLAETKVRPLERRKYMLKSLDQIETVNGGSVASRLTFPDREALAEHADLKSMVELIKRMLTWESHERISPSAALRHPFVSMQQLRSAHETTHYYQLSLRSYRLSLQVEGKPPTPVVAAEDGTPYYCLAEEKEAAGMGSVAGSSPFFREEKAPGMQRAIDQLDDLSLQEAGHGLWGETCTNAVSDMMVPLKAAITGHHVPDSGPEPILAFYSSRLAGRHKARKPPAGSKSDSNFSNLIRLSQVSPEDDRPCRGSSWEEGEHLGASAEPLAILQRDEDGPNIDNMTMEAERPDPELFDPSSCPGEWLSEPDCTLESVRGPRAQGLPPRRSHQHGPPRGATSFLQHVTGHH
To be noted: 1 μM; Run 1, Run 2.

The target in assay [2] is TESK2 (Homo sapiens, UniProt Q96S53). Nature of the assay: biochemical. To be noted: read-out: % enzyme activity, 1 μM; Run 1, Run 2.
The target of assay [3] is T2, PKMYT1 (Homo sapiens, UniProt Q99640).
T2 sequence (Q99640 1-499): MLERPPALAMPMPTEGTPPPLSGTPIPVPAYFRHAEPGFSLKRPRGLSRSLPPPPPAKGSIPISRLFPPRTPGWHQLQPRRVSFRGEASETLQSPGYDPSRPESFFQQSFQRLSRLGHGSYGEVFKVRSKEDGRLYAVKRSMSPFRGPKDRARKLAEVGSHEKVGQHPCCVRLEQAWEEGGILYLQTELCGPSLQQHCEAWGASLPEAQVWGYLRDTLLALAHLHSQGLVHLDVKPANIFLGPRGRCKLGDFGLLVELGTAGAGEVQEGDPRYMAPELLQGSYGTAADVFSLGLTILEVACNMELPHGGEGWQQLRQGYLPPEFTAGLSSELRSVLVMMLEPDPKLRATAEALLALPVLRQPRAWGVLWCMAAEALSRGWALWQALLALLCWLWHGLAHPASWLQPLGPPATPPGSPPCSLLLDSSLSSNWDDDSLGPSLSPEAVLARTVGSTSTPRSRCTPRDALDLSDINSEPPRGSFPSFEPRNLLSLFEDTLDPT
The conditions noted are these: 1 μM; Run 1, Run 2.

The target in assay [4] is CAMK1b (Homo sapiens, UniProt Q6P2M8). The conditions noted are these: 1 μM; Run 1, Run 2.
Assay [5] concerns the target T3, MEKK2 (Homo sapiens, UniProt Q9Y2U5).
T3 sequence (Q9Y2U5 1-619): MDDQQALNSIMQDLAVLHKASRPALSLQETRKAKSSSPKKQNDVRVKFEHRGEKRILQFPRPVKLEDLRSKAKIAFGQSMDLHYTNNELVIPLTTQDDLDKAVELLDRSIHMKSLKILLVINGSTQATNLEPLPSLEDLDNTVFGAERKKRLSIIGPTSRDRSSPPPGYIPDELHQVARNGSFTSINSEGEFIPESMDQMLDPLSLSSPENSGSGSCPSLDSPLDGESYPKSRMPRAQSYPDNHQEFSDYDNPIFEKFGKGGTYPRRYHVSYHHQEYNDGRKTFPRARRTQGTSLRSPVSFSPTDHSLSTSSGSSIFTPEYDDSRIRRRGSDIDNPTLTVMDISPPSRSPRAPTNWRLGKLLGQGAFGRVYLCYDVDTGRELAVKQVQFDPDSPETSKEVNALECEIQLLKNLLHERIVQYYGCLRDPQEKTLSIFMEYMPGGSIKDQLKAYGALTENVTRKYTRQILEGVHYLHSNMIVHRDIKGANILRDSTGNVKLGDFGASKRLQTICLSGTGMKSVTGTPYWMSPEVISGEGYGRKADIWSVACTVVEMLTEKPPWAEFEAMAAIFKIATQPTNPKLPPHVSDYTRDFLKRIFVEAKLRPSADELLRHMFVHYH
Nature of the assay: biochemical. To be noted: read-out: % enzyme activity, 1 μM; Run 1, Run 2.

For assay [6], the target named is T1, HIPK4. As to the kind of experiment: biochemical. To be noted: read-out: % enzyme activity, 1 μM; Run 1, Run 2.
Assay [7] addresses SIK3 (Homo sapiens, UniProt Q9Y2K2). The conditions noted are these: 1 μM; Run 1, Run 2.
Assay [8] has as its target SLK/STK2 (Homo sapiens, UniProt Q9H2G2). As to the kind of experiment: biochemical. The conditions noted are these: read-out: % enzyme activity, 1 μM; Run 1, Run 2.
Assay [9] concerns the target T4, TAOK3/JIK (Homo sapiens, UniProt Q9H2K8).
T4 sequence (Q9H2K8 1-898): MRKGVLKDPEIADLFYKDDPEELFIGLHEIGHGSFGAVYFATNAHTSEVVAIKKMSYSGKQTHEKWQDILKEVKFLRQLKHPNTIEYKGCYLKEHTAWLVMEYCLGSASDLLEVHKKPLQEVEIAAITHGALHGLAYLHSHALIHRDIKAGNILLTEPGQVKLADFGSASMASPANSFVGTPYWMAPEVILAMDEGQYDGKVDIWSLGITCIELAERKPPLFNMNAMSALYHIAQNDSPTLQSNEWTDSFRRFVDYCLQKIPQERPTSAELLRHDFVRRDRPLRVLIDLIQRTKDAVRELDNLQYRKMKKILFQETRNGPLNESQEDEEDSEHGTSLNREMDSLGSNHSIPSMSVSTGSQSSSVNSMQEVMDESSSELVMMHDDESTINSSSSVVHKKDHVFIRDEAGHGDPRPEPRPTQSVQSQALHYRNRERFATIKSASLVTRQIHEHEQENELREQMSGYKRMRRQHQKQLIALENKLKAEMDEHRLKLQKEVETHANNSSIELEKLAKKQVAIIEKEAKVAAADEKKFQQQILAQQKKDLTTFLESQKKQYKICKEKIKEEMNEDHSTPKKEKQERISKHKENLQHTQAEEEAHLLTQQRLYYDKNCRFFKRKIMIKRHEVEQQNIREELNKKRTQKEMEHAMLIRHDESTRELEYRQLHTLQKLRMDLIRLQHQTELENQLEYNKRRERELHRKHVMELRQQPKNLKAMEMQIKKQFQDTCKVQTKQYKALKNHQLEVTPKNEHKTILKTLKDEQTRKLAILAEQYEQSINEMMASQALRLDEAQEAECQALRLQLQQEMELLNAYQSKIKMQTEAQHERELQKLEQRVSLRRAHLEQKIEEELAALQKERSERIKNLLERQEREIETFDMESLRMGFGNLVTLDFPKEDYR
As to the kind of experiment: biochemical. The conditions noted are these: read-out: % enzyme activity, 1 μM; Run 1, Run 2.

Chain of CAMK1b (Q6P2M8 whole entry): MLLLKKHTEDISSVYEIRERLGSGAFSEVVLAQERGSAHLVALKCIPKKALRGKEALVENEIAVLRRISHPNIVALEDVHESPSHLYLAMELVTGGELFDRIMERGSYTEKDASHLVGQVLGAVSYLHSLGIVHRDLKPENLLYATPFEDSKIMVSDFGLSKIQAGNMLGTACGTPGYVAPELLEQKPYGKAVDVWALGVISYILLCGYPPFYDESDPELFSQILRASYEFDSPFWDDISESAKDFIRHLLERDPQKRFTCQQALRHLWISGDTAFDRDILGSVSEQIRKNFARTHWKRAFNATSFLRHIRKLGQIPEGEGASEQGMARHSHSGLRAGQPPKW
Chain of SIK3 (Q9Y2K2 whole entry): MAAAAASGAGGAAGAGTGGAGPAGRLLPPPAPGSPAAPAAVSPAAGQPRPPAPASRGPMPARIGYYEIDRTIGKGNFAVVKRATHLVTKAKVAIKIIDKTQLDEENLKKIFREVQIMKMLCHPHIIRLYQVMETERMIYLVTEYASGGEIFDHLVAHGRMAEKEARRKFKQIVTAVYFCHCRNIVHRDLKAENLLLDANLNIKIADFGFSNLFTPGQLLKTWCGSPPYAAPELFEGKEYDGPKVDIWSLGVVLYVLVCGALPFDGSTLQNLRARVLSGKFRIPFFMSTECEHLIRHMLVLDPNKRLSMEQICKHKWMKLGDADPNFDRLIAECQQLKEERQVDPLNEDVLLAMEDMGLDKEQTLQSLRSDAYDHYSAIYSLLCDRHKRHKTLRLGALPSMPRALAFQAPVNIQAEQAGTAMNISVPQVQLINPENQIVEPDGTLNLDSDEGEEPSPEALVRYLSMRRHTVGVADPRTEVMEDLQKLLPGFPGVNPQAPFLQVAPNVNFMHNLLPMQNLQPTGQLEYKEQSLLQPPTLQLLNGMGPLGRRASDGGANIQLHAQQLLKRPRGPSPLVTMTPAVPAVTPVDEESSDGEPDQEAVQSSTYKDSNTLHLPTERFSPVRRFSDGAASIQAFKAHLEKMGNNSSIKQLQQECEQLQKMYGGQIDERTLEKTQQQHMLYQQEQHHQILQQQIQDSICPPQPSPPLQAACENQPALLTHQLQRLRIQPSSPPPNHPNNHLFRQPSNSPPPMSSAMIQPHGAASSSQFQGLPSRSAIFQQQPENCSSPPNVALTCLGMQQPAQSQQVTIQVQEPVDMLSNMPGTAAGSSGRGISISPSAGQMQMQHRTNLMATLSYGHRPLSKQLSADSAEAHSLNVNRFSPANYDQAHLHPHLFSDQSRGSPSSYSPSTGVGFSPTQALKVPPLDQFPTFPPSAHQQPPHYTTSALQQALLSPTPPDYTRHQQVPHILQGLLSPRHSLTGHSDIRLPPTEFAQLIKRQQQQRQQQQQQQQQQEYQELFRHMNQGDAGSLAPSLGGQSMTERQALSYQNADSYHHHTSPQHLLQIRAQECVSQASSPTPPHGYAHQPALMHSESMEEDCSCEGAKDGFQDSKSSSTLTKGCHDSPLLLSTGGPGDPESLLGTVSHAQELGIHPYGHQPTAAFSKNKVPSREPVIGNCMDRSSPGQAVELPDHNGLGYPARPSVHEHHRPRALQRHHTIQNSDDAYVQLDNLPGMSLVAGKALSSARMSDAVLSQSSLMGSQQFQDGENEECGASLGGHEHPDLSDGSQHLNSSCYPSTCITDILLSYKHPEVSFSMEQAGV
Chain of SLK/STK2 (Q9H2G2 whole entry): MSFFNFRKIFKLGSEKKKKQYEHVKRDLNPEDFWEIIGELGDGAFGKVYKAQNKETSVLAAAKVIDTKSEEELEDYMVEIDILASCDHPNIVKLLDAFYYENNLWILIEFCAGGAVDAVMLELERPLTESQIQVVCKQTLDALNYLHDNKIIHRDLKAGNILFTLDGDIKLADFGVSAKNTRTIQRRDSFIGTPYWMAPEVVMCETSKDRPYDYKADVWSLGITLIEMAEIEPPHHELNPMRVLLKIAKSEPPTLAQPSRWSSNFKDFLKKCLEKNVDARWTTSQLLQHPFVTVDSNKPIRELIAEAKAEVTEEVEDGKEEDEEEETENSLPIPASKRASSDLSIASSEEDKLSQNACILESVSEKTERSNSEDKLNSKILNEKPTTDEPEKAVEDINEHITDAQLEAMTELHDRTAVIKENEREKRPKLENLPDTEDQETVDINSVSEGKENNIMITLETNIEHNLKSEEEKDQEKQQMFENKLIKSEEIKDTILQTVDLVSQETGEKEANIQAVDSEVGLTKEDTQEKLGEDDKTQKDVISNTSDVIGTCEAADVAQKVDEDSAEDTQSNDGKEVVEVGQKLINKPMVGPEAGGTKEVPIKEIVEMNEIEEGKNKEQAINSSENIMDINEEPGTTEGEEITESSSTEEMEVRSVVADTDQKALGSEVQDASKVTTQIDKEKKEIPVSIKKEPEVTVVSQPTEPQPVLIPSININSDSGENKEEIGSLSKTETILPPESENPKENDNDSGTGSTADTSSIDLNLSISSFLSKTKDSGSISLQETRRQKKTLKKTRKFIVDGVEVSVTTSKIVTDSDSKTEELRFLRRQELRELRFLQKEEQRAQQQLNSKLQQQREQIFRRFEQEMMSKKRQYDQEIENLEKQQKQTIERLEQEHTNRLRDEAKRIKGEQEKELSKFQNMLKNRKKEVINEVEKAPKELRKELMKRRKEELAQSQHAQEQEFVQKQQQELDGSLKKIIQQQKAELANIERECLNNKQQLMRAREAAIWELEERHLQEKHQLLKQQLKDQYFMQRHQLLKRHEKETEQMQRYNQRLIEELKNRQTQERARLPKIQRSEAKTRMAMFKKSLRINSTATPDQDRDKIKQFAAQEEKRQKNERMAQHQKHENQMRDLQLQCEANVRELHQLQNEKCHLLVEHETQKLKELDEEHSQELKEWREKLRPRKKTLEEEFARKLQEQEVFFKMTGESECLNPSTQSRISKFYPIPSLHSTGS
Chain of TESK2 (Q96S53 whole entry): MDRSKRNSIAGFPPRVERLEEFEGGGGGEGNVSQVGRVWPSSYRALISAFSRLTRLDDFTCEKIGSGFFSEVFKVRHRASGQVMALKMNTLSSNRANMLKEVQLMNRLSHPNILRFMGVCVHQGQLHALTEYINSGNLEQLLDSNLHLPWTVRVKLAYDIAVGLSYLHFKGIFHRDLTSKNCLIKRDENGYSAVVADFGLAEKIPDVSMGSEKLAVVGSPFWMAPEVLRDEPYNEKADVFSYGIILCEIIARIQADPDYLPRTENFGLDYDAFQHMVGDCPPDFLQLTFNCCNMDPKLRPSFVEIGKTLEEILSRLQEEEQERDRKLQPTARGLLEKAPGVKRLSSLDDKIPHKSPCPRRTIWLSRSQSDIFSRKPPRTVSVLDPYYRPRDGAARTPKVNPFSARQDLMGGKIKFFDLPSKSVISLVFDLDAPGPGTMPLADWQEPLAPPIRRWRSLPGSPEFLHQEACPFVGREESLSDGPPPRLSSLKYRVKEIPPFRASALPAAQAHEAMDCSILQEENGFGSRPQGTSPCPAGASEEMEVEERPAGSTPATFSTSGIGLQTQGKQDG

Turning to `COc1cc(-c2cncc(-c3ccc(N4CCN(C)CC4)cc3)c2C)cc(F)c1C(N)=O` [Compound 26a, 2-Fluoro-6-methoxy-4-(4-methyl-5-(4-(4-methylpiperazin-1-yl)phenyl)pyridin-3-yl)benzamide], the “% enzyme activity” value in [1] is given as 102.90%; in [3] it was 100.09%; in assay [4], 95.63%; in assay [7], 58.19%. The remaining activity at 1 µM in [2] amounted to 93.9%; in [5], 95%; in [6], 104%; in assay [8] it was 100%; in assay [9] it was 69.7%.
As for `COc1cc(-c2cncc(-c3ccc(N4C[C@@H](C)N(C)[C@@H](C)C4)cc3)c2C)cc(F)c1C(N)=O` [Compound 26c, 2-Fluoro-6-methoxy-4-(4-methyl-5-(4-((3R,5S)-3,4,5-trimethylpiperazin-1-yl)phenyl)pyridin-3-yl)benzamide], the “% enzyme activity” value in assay [1] is 97.53%; in [3] it was 92.38%; in [4], 99.02%; in assay [7] it was 82.93%. For the same compound, the remaining activity at 1 µM amounted to 92.2% in assay [2]; 98.8% in assay [5]; 101% in assay [6]; 101% in [8]; 84.5% in [9].
